PubChem BioAssay (NCI)
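These data come from cells grown in 96-well plates and exposed to compound for 48 hours at five concentrations. TGI: concentration producing complete growth inhibition.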

Experiments:
Assay in all cases: NCI anticancer screen, dose series, 48 h
786-0 renal = test system: 786-0 renal
A498 renal = test system: A498 renal
A549 NSCLC = test system: A549 NSCLC
ACHN renal = test system: ACHN renal
CAKI-1 renal = test system: CAKI-1 renal
CCRF-CEM leukemia = test system: CCRF-CEM leukemia
COLO 205 colon = test system: COLO 205 colon
DLD-1 colon = test system: DLD-1 colon
DMS 114 small cell lung = test system: DMS 114 small cell lung
DMS 273 small cell lung = test system: DMS 273 small cell lung
EKVX NSCLC = test system: EKVX NSCLC
HCT-116 colon = test system: HCT-116 colon
HCT-15 colon = test system: HCT-15 colon
HL-60(TB) leukemia = test system: HL-60(TB) leukemia
HOP-18 NSCLC = test system: HOP-18 NSCLC
HOP-62 NSCLC = test system: HOP-62 NSCLC
HOP-92 NSCLC = test system: HOP-92 NSCLC
HT29 colon = test system: HT29 colon
IGROV1 ovarian = test system: IGROV1 ovarian
K-562 leukemia = test system: K-562 leukemia
KM12 colon = test system: KM12 colon
KM20L2 colon = test system: KM20L2 colon
LOX IMVI melanoma = test system: LOX IMVI melanoma
LXFL 529 NSCLC = test system: LXFL 529 NSCLC
M14 melanoma = test system: M14 melanoma
M19-MEL melanoma = test system: M19-MEL melanoma
MALME-3M melanoma = test system: MALME-3M melanoma
MOLT-4 leukemia = test system: MOLT-4 leukemia
NCI-H226 lung = test system: NCI-H226 lung
NCI-H23 lung = test system: NCI-H23 lung
NCI-H460 lung = test system: NCI-H460 lung
NCI-H522 lung = test system: NCI-H522 lung
OVCAR-3 ovarian = test system: OVCAR-3 ovarian
OVCAR-4 ovarian = test system: OVCAR-4 ovarian
OVCAR-8 ovarian = test system: OVCAR-8 ovarian
RPMI-8226 leukemia = test system: RPMI-8226 leukemia
RXF 393 renal = test system: RXF 393 renal
SF-295 CNS = test system: SF-295 CNS
SF-539 CNS = test system: SF-539 CNS
SK-MEL-28 melanoma = test system: SK-MEL-28 melanoma
SK-MEL-5 melanoma = test system: SK-MEL-5 melanoma
SN12C renal = test system: SN12C renal
SNB-19 CNS = test system: SNB-19 CNS
SNB-75 CNS = test system: SNB-75 CNS
SNB-78 CNS = test system: SNB-78 CNS
SW-620 colon = test system: SW-620 colon
TK-10 renal = test system: TK-10 renal
U251 CNS = test system: U251 CNS
UACC-257 melanoma = test system: UACC-257 melanoma
UACC-62 melanoma = test system: UACC-62 melanoma
UO-31 renal = test system: UO-31 renal
XF 498 CNS = test system: XF 498 CNS
HCC-2998 colon = test system: HCC-2998 colon
OVCAR-5 ovarian = test system: OVCAR-5 ovarian
SF-268 CNS = test system: SF-268 CNS
SK-MEL-2 melanoma = test system: SK-MEL-2 melanoma
SK-OV-3 ovarian = test system: SK-OV-3 ovarian
SR leukemia = test system: SR leukemia

Compound `CN(C)CC(C)(C)C(=O)/C=C/c1ccccc1` has a TGI (786-0 renal) of 29.9 µM, a TGI (A498 renal) of 39.5 µM and a TGI (A549 NSCLC) of over 100 µM. For the same compound, the TGI (ACHN renal) was 33.3 µM, the TGI (CAKI-1 renal) was 40.3 µM and the TGI (CCRF-CEM leukemia) was 23.2 µM. For the same compound, the TGI (COLO 205 colon) was 26.2 µM, the TGI (DLD-1 colon) was 74.3 µM and the TGI (DMS 114 small cell lung) was 29.1 µM. It also gave a TGI (DMS 273 small cell lung) of 47.7 µM, a TGI (EKVX NSCLC) of 38.3 µM and a TGI (HCT-116 colon) of 27.4 µM. It also gave a TGI (HCT-15 colon) of 26.9 µM, a TGI (HL-60(TB) leukemia) of 26.7 µM and a TGI (HOP-18 NSCLC) of 49.8 µM. It also gave a TGI (HOP-62 NSCLC) of 96.3 µM, a TGI (HOP-92 NSCLC) of 24.5 µM and a TGI (HT29 colon) of 33.9 µM. It also gave a TGI (IGROV1 ovarian) of 59.7 µM, a TGI (K-562 leukemia) of 33.7 µM and a TGI (KM12 colon) of 28.5 µM. For the same compound, the TGI (KM20L2 colon) was 28.8 µM, the TGI (LOX IMVI melanoma) was 25.6 µM and the TGI (LXFL 529 NSCLC) was 24.9 µM. For the same compound, the TGI (M14 melanoma) was 26.7 µM, the TGI (M19-MEL melanoma) was 32.2 µM and the TGI (MALME-3M melanoma) was 24.1 µM. For the same compound, the TGI (MOLT-4 leukemia) was 60.4 µM, the TGI (NCI-H226 lung) was 29.3 µM and the TGI (NCI-H23 lung) was 45.5 µM. It also gave a TGI (NCI-H460 lung) of 74.6 µM, a TGI (NCI-H522 lung) of 23 µM and a TGI (OVCAR-3 ovarian) of 40.5 µM. The TGI (OVCAR-4 ovarian) was 31.6 µM, the TGI (OVCAR-8 ovarian) was over 100 µM and the TGI (RPMI-8226 leukemia) was 56.6 µM. It also gave a TGI (RXF 393 renal) of 24.5 µM, a TGI (SF-295 CNS) of 33.2 µM and a TGI (SF-539 CNS) of 32.3 µM. For the same compound, the TGI (SK-MEL-28 melanoma) was 31 µM, the TGI (SK-MEL-5 melanoma) was 30.1 µM and the TGI (SN12C renal) was 33.7 µM. The TGI (SNB-19 CNS) was 31.4 µM, the TGI (SNB-75 CNS) was 37.7 µM and the TGI (SNB-78 CNS) was 88.6 µM. The TGI (SW-620 colon) was 31.1 µM, the TGI (TK-10 renal) was 32.1 µM and the TGI (U251 CNS) was 30.5 µM. It also gave a TGI (UACC-257 melanoma) of 27.2 µM, a TGI (UACC-62 melanoma) of 26.5 µM and a TGI (UO-31 renal) of 23 µM. It also gave a TGI (XF 498 CNS) of 23.8 µM.

`CN(C)/C=C/C(=O)c1cccc(C(=O)/C=C/N(C)C)n1` was tested, and the TGI (786-0 renal) was over 100 µM, the TGI (A498 renal) was over 100 µM and the TGI (A549 NSCLC) was over 100 µM. It also gave a TGI (ACHN renal) of over 100 µM, a TGI (CCRF-CEM leukemia) of over 100 µM and a TGI (COLO 205 colon) of over 100 µM. It also gave a TGI (DLD-1 colon) of over 100 µM, a TGI (DMS 273 small cell lung) of over 100 µM and a TGI (EKVX NSCLC) of over 100 µM. For the same compound, the TGI (HCC-2998 colon) was over 100 µM, the TGI (HCT-116 colon) was over 100 µM and the TGI (HCT-15 colon) was over 100 µM. The TGI (HL-60(TB) leukemia) was over 100 µM, the TGI (HOP-18 NSCLC) was over 100 µM and the TGI (HOP-62 NSCLC) was over 100 µM. The TGI (HOP-92 NSCLC) was over 100 µM, the TGI (HT29 colon) was over 100 µM and the TGI (IGROV1 ovarian) was over 100 µM. It also gave a TGI (K-562 leukemia) of over 100 µM, a TGI (KM12 colon) of over 100 µM and a TGI (KM20L2 colon) of over 100 µM. It also gave a TGI (LOX IMVI melanoma) of over 100 µM, a TGI (LXFL 529 NSCLC) of over 100 µM and a TGI (M14 melanoma) of over 100 µM. The TGI (M19-MEL melanoma) was over 100 µM, the TGI (MALME-3M melanoma) was over 100 µM and the TGI (MOLT-4 leukemia) was over 100 µM. For the same compound, the TGI (NCI-H226 lung) was over 100 µM, the TGI (NCI-H23 lung) was over 100 µM and the TGI (NCI-H460 lung) was over 100 µM. For the same compound, the TGI (NCI-H522 lung) was over 100 µM, the TGI (OVCAR-3 ovarian) was over 100 µM and the TGI (OVCAR-4 ovarian) was over 100 µM. For the same compound, the TGI (OVCAR-5 ovarian) was over 100 µM, the TGI (OVCAR-8 ovarian) was over 100 µM and the TGI (RPMI-8226 leukemia) was over 100 µM. For the same compound, the TGI (RXF 393 renal) was over 100 µM, the TGI (SF-268 CNS) was over 100 µM and the TGI (SF-295 CNS) was over 100 µM. The TGI (SF-539 CNS) was over 100 µM, the TGI (SK-MEL-2 melanoma) was over 100 µM and the TGI (SK-MEL-28 melanoma) was over 100 µM. For the same compound, the TGI (SK-MEL-5 melanoma) was over 100 µM, the TGI (SK-OV-3 ovarian) was over 100 µM and the TGI (SN12C renal) was over 100 µM. It also gave a TGI (SNB-19 CNS) of over 100 µM, a TGI (SNB-75 CNS) of over 100 µM and a TGI (SNB-78 CNS) of over 100 µM. It also gave a TGI (SR leukemia) of over 100 µM, a TGI (SW-620 colon) of over 100 µM and a TGI (TK-10 renal) of over 100 µM. It also gave a TGI (U251 CNS) of over 100 µM, a TGI (UACC-257 melanoma) of over 100 µM and a TGI (UACC-62 melanoma) of over 100 µM. For the same compound, the TGI (UO-31 renal) was over 100 µM and the TGI (XF 498 CNS) was over 100 µM.

Work on `CC1CC(=O)CC[C@@H]1OCc1ccccc1` (stereo not given in full) yielded a TGI (786-0 renal) of over 100 µM, a TGI (A498 renal) of over 100 µM and a TGI (A549 NSCLC) of over 100 µM. For the same compound, the TGI (ACHN renal) was over 100 µM, the TGI (CAKI-1 renal) was over 100 µM and the TGI (CCRF-CEM leukemia) was over 100 µM. The TGI (COLO 205 colon) was over 100 µM, the TGI (DLD-1 colon) was over 100 µM and the TGI (DMS 114 small cell lung) was over 100 µM. The TGI (DMS 273 small cell lung) was over 100 µM, the TGI (EKVX NSCLC) was over 100 µM and the TGI (HCC-2998 colon) was over 100 µM. It also gave a TGI (HCT-116 colon) of over 100 µM, a TGI (HCT-15 colon) of over 100 µM and a TGI (HL-60(TB) leukemia) of over 100 µM. The TGI (HOP-18 NSCLC) was over 100 µM, the TGI (HOP-62 NSCLC) was over 100 µM and the TGI (HT29 colon) was over 100 µM. For the same compound, the TGI (IGROV1 ovarian) was over 100 µM, the TGI (K-562 leukemia) was over 100 µM and the TGI (KM12 colon) was over 100 µM. The TGI (KM20L2 colon) was over 100 µM, the TGI (LOX IMVI melanoma) was over 100 µM and the TGI (M14 melanoma) was over 100 µM. For the same compound, the TGI (M19-MEL melanoma) was over 100 µM, the TGI (MALME-3M melanoma) was over 100 µM and the TGI (MOLT-4 leukemia) was over 100 µM. The TGI (NCI-H23 lung) was over 100 µM, the TGI (NCI-H460 lung) was over 100 µM and the TGI (OVCAR-3 ovarian) was over 100 µM. It also gave a TGI (OVCAR-4 ovarian) of over 100 µM, a TGI (OVCAR-5 ovarian) of over 100 µM and a TGI (OVCAR-8 ovarian) of over 100 µM. The TGI (RPMI-8226 leukemia) was over 100 µM, the TGI (RXF 393 renal) was over 100 µM and the TGI (SF-268 CNS) was over 100 µM. For the same compound, the TGI (SF-295 CNS) was over 100 µM, the TGI (SF-539 CNS) was over 100 µM and the TGI (SK-MEL-2 melanoma) was over 100 µM. For the same compound, the TGI (SK-MEL-5 melanoma) was over 100 µM, the TGI (SK-OV-3 ovarian) was over 100 µM and the TGI (SN12C renal) was over 100 µM. The TGI (SNB-19 CNS) was over 100 µM, the TGI (SNB-75 CNS) was over 100 µM and the TGI (SNB-78 CNS) was over 100 µM. The TGI (SW-620 colon) was over 100 µM, the TGI (TK-10 renal) was over 100 µM and the TGI (U251 CNS) was over 100 µM. The TGI (UACC-257 melanoma) was over 100 µM, the TGI (UACC-62 melanoma) was over 100 µM and the TGI (UO-31 renal) was over 100 µM. The TGI (XF 498 CNS) was over 100 µM.
